Patent US9750756B2, “Celecoxib compositions” (Pfizer Inc., priority 1998, dated 2017)

Assay: Effect of food study (Example 17)
Format: in vivo, human
Conditions: healthy adult subjects, single 50 mg or 100 mg capsule doses, fasting or fed
Description: An open-label randomized, single dose, four-way crossover study was employed to evaluate the dose proportionality and the effect of food on the pharmacokinetic profile of celecoxib in healthy adult subjects. Safety was assessed based on adverse events, vital signs and clinical laboratory tests. Twenty four healthy adult subjects were randomized to receive the following single doses of celecoxib: (A) a 50 mg dose capsule under fasting conditions, (B) a 50 mg dose capsule immediately following a high fat breakfast, (C) a 100 mg dose capsule under fasting conditions, and (D) a 100 mg dose capsule immediately following a high fat breakfast. The subjects received the study medication on days 1, 8, 15 and 22 in one of four treatment sequences (ADBC; BACD; CBDA; and DCAB). The specific composition of the 100 mg dose capsule is disclosed in Example 1. The specific composition of the 50 mg dose capsule is disclosed in Table 17A below:
Blood samples were collected at −0.25 (predose), 0.5, 1, 1.5, 2, 3, 4, 6, 8, 12, 16, 24, 36 and 48 hours post dose. Analyses of the separated plasma were performed at PPD Pharmaco, Richmond, Va. Celecoxib plasma concentrations were determined using a validated high performance liquid chromatography (“HPLC”) procedure with a lower limit of detection of 10.0 ng/ml. […] All adverse events were mild in severity.

Question: With `Cc1ccc(-c2cc(C(F)(F)F)nn2-c2ccc(S(N)(=O)=O)cc2)cc1` [celecoxib, 4-[5-(4-methylphenyl)-3-(trifluoromethyl)-1H-pyrazol-1-yl]benzenesulfonamide] as the compound, how does the “changes in vital signs or physical examinations” value read?
Answer: The value was “no clinically significant changes”.

Question: And the “severity of adverse events” value?
Answer: The value was “mild”.
